Data: ChEMBL document CHEMBL1155218, “Carbonic anhydrase inhibitors. Comparison of aliphatic sulfamate/bis-sulfamate adducts with isozymes II and IX as a platform for designing tight-binding, more isoform-selective inhibitors” (J Med Chem, 2009)

How the values were obtained:
Carbonic anhydrase 12 = Carbonic anhydrase 12 (Homo sapiens, UniProt O43570)
[1] = biological target: Carbonic anhydrase 5B, mitochondrial (Homo sapiens, UniProt Q9Y2D0)
Carbonic anhydrase 3 = Carbonic anhydrase 3 (Homo sapiens, UniProt P07451)
[2] = biological target: Carbonic anhydrase 5A, mitochondrial (Homo sapiens, UniProt P35218)
Carbonic anhydrase 6 = Carbonic anhydrase 6 (Homo sapiens, UniProt P23280)
Carbonic anhydrase 14 = Carbonic anhydrase 14 (Homo sapiens, UniProt Q9ULX7)
Carbonic anhydrase 13 = Carbonic anhydrase 13 (Mus musculus, UniProt Q9D6N1)
Carbonic anhydrase 7 = Carbonic anhydrase 7 (Homo sapiens, UniProt P43166)
Sequence of Carbonic anhydrase 7 (P43166 whole entry): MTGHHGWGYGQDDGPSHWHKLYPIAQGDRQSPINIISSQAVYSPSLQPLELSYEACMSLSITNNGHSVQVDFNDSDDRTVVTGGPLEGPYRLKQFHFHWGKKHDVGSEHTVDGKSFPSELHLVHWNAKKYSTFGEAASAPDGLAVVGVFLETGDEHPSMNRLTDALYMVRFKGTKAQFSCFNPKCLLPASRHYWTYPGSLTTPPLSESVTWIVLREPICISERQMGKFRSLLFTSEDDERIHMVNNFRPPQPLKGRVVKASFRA

Sequence of Carbonic anhydrase 13 (Q9D6N1 whole entry): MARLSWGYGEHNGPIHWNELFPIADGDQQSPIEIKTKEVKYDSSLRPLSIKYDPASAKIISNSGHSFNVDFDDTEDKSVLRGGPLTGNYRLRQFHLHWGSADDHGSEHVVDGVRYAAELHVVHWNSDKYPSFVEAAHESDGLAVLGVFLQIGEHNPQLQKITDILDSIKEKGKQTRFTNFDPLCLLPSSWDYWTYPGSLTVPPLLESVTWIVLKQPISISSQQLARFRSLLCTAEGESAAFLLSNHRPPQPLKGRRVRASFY
Sequence of Carbonic anhydrase 5B, mitochondrial (Q9Y2D0 whole entry): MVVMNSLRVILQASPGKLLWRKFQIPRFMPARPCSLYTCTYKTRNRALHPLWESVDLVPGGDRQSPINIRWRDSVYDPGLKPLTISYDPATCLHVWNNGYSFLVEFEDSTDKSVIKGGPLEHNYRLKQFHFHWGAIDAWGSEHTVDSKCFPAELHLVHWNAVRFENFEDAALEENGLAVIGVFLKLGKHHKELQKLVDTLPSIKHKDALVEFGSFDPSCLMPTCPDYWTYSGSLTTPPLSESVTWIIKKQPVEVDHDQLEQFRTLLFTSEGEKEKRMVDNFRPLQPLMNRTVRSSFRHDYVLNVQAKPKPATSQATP
Sequence of Carbonic anhydrase 12 (O43570 whole entry): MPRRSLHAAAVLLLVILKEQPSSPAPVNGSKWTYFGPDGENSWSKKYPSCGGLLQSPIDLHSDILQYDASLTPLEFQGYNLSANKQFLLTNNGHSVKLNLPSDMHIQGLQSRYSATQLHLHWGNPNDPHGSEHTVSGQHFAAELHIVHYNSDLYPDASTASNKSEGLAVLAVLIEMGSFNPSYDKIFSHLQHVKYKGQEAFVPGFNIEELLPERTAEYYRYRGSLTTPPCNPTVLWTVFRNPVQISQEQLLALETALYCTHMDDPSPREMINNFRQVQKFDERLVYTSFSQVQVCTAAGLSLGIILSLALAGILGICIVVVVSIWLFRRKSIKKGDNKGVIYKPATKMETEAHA
Sequence of Carbonic anhydrase 5A, mitochondrial (P35218 whole entry): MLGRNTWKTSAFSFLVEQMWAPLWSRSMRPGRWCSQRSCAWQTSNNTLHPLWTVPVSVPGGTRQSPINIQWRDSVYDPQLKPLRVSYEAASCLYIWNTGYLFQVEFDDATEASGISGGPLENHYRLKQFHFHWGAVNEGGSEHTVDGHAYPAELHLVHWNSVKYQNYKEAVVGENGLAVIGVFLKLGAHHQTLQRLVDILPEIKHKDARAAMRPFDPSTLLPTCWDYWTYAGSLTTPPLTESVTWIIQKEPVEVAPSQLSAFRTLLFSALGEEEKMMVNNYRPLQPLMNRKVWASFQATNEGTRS
Sequence of Carbonic anhydrase 14 (Q9ULX7 whole entry): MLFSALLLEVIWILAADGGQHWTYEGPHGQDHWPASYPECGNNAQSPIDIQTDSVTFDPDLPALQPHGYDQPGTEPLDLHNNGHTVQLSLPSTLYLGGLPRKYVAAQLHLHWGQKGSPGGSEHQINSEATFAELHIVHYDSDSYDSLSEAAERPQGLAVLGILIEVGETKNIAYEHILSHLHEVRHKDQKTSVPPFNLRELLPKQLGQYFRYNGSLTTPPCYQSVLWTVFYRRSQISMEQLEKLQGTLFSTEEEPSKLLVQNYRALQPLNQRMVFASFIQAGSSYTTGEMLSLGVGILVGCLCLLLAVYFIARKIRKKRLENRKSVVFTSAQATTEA
Sequence of Carbonic anhydrase 3 (P07451 whole entry): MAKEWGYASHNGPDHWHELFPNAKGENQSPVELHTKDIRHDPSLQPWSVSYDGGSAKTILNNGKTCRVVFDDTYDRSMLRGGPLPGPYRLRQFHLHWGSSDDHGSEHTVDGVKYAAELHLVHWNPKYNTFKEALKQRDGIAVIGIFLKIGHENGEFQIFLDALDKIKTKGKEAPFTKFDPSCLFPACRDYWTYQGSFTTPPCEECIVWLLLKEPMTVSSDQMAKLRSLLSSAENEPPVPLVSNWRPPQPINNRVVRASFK
Sequence of Carbonic anhydrase 6 (P23280 whole entry): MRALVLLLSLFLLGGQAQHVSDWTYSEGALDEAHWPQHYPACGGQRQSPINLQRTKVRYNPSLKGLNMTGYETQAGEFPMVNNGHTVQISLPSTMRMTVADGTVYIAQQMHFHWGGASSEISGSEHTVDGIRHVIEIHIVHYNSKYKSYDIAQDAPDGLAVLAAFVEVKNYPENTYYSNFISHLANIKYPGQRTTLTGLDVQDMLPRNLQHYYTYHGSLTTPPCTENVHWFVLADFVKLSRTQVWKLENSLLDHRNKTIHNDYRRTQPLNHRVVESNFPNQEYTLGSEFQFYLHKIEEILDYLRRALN

Row | Ki (Carbonic anhydrase 12) | Ki [1] | Ki (Carbonic anhydrase 3) | Ki [2] | Ki (Carbonic anhydrase 6) | Ki (Carbonic anhydrase 14) | Ki (Carbonic anhydrase 13) | Ki (Carbonic anhydrase 7) | SMILES
1 | 7.9 nM | 1460 nM | 1130 nM | 1200 nM | 1020 nM | 605 nM | 569 nM | – | NS(=O)(=O)OCCCCCCCCOS(N)(=O)=O
2 | – | – | – | – | – | – | 960 nM | – | NS(=O)(=O)OCCCCCCCCCCOS(N)(=O)=O
3 | – | – | – | – | – | – | 956 nM | – | CCCCCCCCCCOS(N)(=O)=O [DECYL SULFAMATE]
4 | 7 nM | 624 nM | 9100 nM | 1250 nM | 795 nM | 390 nM | 1130 nM | 76.6 nM | CCCCCCCCOS(N)(=O)=O [OCTYL SULFAMATE]
